According to patent EP2351737A1, “3-Amino-1-arylpropyl indoles and aza-substituted indoles” (F. Hoffmann-La Roche AG, priority 2005, dated 2007):

How the values were obtained:
[1] = target: T1, Human Serotonin Transporter (hSERT) (Homo sapiens, UniProt P31645); test: Human Serotonin Transporter (hSERT) Scintillation Proximity Assay (SPA), competition with [3H]-Citalopram; assay type: binding; details: membranes of HEK-293 cells expressing recombinant hSERT, Ki by Cheng-Prusoff; for Ki: read-out: pKi SERT (converted)
T1 construct: expressed in transfected cells; membranes prepared from them
From the text: Screening for Human Serotonin Transporter (hSERT) Antagonists Using a Scintillation Proximity Assay (SPA)
Scintillation Proximity Assay (SPA) works by bringing radioligand within close proximity to the bead's scintillant to stimulate light emission. […] Unbound radioligand produced no signal as a result of distant proximity to scintillant (lack of energy transfer).

[2] = target: Human Norepinephrine Transporter (hNET) (Homo sapiens, UniProt P23975); test: Human Norepinephrine Transporter (hNET) Scintillation Proximity Assay (SPA), competition with [3H]-Nisoxetine; details: membranes of HEK-293 cells expressing recombinant hNET, Ki by Cheng-Prusoff; for Ki: pKi NET
Sequence of Human Norepinephrine Transporter (hNET) (P23975 whole entry): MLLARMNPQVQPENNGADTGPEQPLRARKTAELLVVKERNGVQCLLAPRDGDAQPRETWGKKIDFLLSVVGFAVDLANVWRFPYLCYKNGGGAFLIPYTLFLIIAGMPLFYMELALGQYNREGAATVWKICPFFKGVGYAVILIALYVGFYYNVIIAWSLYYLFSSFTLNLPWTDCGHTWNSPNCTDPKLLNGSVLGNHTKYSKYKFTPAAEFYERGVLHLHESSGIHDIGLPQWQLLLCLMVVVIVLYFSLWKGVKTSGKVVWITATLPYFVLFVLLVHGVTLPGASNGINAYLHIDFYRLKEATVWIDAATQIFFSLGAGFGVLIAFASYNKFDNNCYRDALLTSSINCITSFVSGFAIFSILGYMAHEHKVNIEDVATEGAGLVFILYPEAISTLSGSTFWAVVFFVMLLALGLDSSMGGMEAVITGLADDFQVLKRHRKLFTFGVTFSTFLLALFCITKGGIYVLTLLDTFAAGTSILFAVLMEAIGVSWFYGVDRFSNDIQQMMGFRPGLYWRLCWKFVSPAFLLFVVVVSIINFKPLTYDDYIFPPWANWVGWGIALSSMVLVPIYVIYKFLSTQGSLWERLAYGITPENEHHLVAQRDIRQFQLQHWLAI

T1 sequence (P31645 whole entry): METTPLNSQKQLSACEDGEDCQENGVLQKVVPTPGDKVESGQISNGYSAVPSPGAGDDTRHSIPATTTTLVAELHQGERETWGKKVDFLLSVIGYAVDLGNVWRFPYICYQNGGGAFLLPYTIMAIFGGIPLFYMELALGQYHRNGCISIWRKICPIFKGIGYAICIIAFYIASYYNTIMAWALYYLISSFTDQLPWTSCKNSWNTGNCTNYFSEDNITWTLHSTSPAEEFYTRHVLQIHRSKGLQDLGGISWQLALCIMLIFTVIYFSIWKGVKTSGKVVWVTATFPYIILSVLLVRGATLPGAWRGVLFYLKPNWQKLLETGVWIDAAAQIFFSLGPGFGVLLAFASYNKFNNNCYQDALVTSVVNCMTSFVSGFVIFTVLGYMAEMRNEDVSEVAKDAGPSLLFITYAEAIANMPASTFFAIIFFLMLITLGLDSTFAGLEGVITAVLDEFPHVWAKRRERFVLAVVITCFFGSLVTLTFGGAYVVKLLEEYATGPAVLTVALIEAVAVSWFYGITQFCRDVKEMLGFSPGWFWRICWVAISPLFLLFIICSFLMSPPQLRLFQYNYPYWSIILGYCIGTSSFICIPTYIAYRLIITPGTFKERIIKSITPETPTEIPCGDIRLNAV

Molecule	Ki [1] [nM]	Ki [2] [nM]	pKi SERT [1]	pKi NET [2]
CNCC[C@@H](c1ccccc1)c1cc(OC)c2[nH]ncc2c1 [Compound 82, [3-(7-Methoxy-1H-indazol-5-yl)-3-(S)-phenyl-propyl]-methyl-amine]	3.72	2.63		
5-(3-Methylamino-1-phenyl-propyl)-1H-indole-3-carboxylic acid methylamide [Compound 129]			7.18	7.72
[3-(1H-Indol-6-yl)-3-(2-methoxy-phenyl)-propyl]-methyl-amine [Compound 34]			7.63	6.59
CNCCC(c1ccccc1)c1ccc2[nH]nc(OC(C)C)c2c1 (stereo not drawn) [Compound 80, [3-(3-Isopropoxy-1H-indazol-5-yl)-3-phenyl-propyl]-methyl-amine]	33.1	148		
CN(C)CCC(c1ccccc1)c1ccc2[nH]ccc2c1 (stereo not drawn) [Compound 113, [3-(1H-Indol-5-yl)-3-phenyl-propyl]-dimethyl-amine]	178	83.2		
CNCCC(c1ccccc1)c1ccc2ccn(C)c2c1 (stereo not drawn) [Compound 9, Methyl-[3-(1-methyl-1H-indol-6-yl)-3-phenyl-propyl]-amine]	9.55	74.1		
CNCC[C@H](c1ccccc1)c1cc(C)c2[nH]ncc2c1 [Compound 78, Methyl-[3-(7-methyl-1H-indazol-5-yl)-3-(R)-phenyl-propyl]-amine]	10	19.5		
5-(3-Methylamino-1-phenyl-propyl)-1H-indole-3-carbonitrile [Compound 10]			9.42	7.03
[3-(7-Fluoro-1H-indol-5-yl)-3-(2-methoxy-phenyl)-propyl]-methyl-amine [Compound 101]			7.24	7.58
CNCCC(c1ccccc1)c1cc(OC)c2cc[nH]c2c1 (stereo not drawn) [Compound 30]			9.06	7.63
3-[1-(7-Fluoro-1H-indol-5-yl)-3-methylamino-propyl]-benzonitrile [Compound 110]			7.59	7.95
CNCCC(c1ccc2[nH]ccc2c1)c1cccc2ccccc12 (stereo not drawn) [Compound 115, [3-(1H-Indol-5-yl)-3-naphthalen-1-yl-propyl]-methyl-amine]	8.13	43.7		
[3-(1H-Indol-6-yl)-3-phenyl-propyl]-methyl-amine [Compound 41]			8.01	7.63
CNCCC(c1ccc2c(c1)OCCN2C)c1ccc2[nH]ccc2c1 (stereo not drawn) [Compound 114, [3-(1H-Indol-5-yl)-3-(4-methyl-3,4-dihydro-2H-benzo[1,4]oxazin-7-yl)-propyl]-methyl-amine]	77.6	87.1		
CNCC[C@@H](c1ccccc1)c1ccc2[nH]nc(Cl)c2c1 [Compound 60, [(S)-3-(3-Chloro-1H-indazol-5-yl)-3-phenyl-propyl]-methyl-amine]	8.51	40.7		
[3-(3-Chloro-1H-indazol-5-yl)-3-phenyl-propyl]-methyl-amine [Compound 57]			8.14	7.06
CNCCC(c1ccccc1)c1ccc2[nH]ccc2c1 (stereo not drawn) [Compound 42, [3-(1H-Indol-5-yl)-3-phenyl-propyl]-methyl-amine]	32.4			8.0
[3-(3,4-Dichloro-phenyl)-3-(1H-indol-5-yl)-propyl]-methyl-amine [Compound 107]			8.17	7.83
[3-(4-Methoxy-1H-indol-5-yl)-3-phenyl-propyl]-methyl-amine [Compound 88]			7.28	7.03
CNCCC(c1ccccc1)c1cc(OC)c2[nH]cc(C#N)c2c1 (stereo not drawn) [Compound 96, 7-Methoxy-5-(3-methylamino-1-phenyl-propyl)-1H-indole-3-carbonitrile]	85.1	97.7		
5-(3-Amino-1-phenyl-propyl)-1H-indole-3-carbonitrile [Compound 70]			8.74	6.39
